According to patent US8299056B2 (Signal Pharmaceuticals, LLC, priority 2008, dated 2012):

target: T1, Syk (Homo sapiens, UniProt P43405); test: Syk HTRF assay; format: biochemical; conditions: IC50 activity level, read-out: Activity Level
T1 construct: purchased Carna Biosciences
In short: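 Read-out is the 665 nm/615 nm time-resolved fluorescence ratio after EDTA stop and Eu-anti-phosphotyrosine plus streptavidin-DyLight 647 detection. Reaction ran 1 h at room temperature with start mix of 87.5 μM ATP and 80 nM substrate peptide in pH 7.6 HEPES/MgCl2 buffer.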

Cn1ncc2cc(Nc3nc4cccc(CC5CCOCC5)n4n3)ccc21 [Example 550, N-(1-methyl-1H-indazol-5-yl)-5-((tetrahydro-2H-pyran-4-yl)methyl)-[1,2,4]triazolo[1,5-a]pyridin-2-amine] and O[C@H]1CC[C@@H](Cc2cccc3nc(Nc4ccc(C(F)(F)F)cc4)nn23)CC1 [Example 399, cis-4-((2-(4-(trifluoromethyl)phenylamino)-[1,2,4]triazolo[1,5-a]pyridin-5-yl)methyl)cyclohexanol] fall in the same range of IC50: 0.005 to 250 nM for the first, 0.005 to 250 nM for the second.

First: CC(O)c1nc2ccc(-c3cccc4nc(Nc5ccc(C(F)(F)F)cc5)nn34)cc2[nH]1 (stereo not shown) [Example 402, 1-(6-(2-(4-(trifluoromethyl)phenylamino)-[1,2,4]triazolo[1,5-a]pyridin-5-yl)-1H-benzo[d]imidazol-2-yl)ethanol]
Second: N[C@H]1CC[C@@H](Oc2cccc3nc(Nc4ccc(C(F)(F)F)cc4)nn23)CC1 [Example 423, cis-5-(4-aminocyclohexyloxy)-N-(4-(trifluoromethyl)phenyl)-[1,2,4]triazolo[1,5-a]pyridin-2-amine]
The IC50 of the first is lower: 0.005 to 250 nM for the first, 500 to 1000 nM for the second. The first is the more potent here.

First: c1ccc(Nc2nc3cccc(NC4CCNCC4)n3n2)cc1 [Example 523, N^2-phenyl-N^5-(piperidin-4-yl)-[1,2,4]triazolo[1,5-a]pyridine-2,5-diamine]
Second: O[C@H]1CC[C@@H](Nc2cccc3nc(Nc4ccccc4)nn23)CC1 [Example 471, cis-4-(2-(phenylamino)-[1,2,4]triazolo[1,5-a]pyridin-5-ylamino)cyclohexanol]
The IC50 of the first is higher: 500 to 1000 nM for the first, 0.005 to 250 nM for the second. The second is the more potent here.

First: NCCn1cnc2cc(-c3cccc4nc(Nc5ccccc5)nn34)ccc21 [Example 490, 5-(1-(2-aminoethyl)-1H-benzo[d]imidazol-5-yl)-N-phenyl-[1,2,4]triazolo[1,5-a]pyridin-2-amine]
Second: O=C1NCc2ccc(-c3cccc4nc(Nc5ccccc5)nn34)cc21 [Example 500, 6-(2-(phenylamino)-[1,2,4]triazolo[1,5-a]pyridin-5-yl)-isoindolin-1-one]
The IC50 of the first is higher: 1000 to 10000 nM for the first, 500 to 1000 nM for the second. The second is the more potent here.

c1ccc(Cc2cccc3nc(Nc4ccccc4)nn23)cc1 [Example 506, 5-benzyl-N-phenyl-[1,2,4]triazolo[1,5-a]pyridin-2-amine] and CNC(=O)c1ccc(Nc2nc3cccc(NC4CCOC4)n3n2)cc1 (stereo not shown) [Example 441, N-methyl-4-(5-(tetrahydrofuran-3-ylamino)-[1,2,4]triazolo[1,5-a]pyridin-2-ylamino)benzamide] fall in the same range of IC50: 1000 to 10000 nM for the first, 1000 to 10000 nM for the second.

Cc1nnc2cc(Nc3nc4cccc(N[C@H]5CC[C@@H](O)CC5)n4n3)ccn12 [Example 568, cis-4-(2-(3-methyl-[1,2,4]triazolo[4,3-a]pyridin-7-ylamino)-[1,2,4]triazolo[1,5-a]pyridin-5-ylamino)cyclohexanol] was tested, and the IC50 was 0.005 to 250 nM.

same assay, conditions: activity levels A-D, read-out: Activity Level (IC50 in the Syk HTRF assay)

Nc1n[nH]c2cc(Nc3nc4cccc(N[C@H]5CC[C@@H](O)CC5)n4n3)ccc12 [Example 216, cis-4-(2-(3-amino-1H-indazol-6-ylamino)-[1,2,4]triazolo[1,5-a]pyridin-5-ylamino)cyclohexanol] and O=C1NCCc2cc(Nc3nc4cccc(N[C@H]5CC[C@@H](O)CC5)n4n3)ccc21 [Example 203, cis-6-(5-(4-hydroxycyclohexylamino)-[1,2,4]triazolo[1,5-a]pyridin-2-ylamino)-3,4-dihydroisoquinolin-1(2H)-one] fall in the same range of IC50: 0.005 to 250 nM for the first, 0.005 to 250 nM for the second.

Cc1n[nH]c2cc(Nc3nc4cccc(N5CC(O)C5)n4n3)ccc12 [Example 215, 1-(2-(3-methyl-1H-indazol-6-ylamino)-[1,2,4]triazolo[1,5-a]pyridin-5-yl)azetidin-3-ol] and Cn1ncc2ccc(Nc3nc4cccc(N[C@H]5CC[C@@H](O)CC5)n4n3)cc21 [Example 364, cis-4-(2-(1-methyl-1H-indazol-6-ylamino)-[1,2,4]triazolo[1,5-a]pyridin-5-ylamino)cyclohexanol] fall in the same range of IC50: 0.005 to 250 nM for the first, 0.005 to 250 nM for the second.

First: O[C@H]1CCC[C@H](Nc2cccc3nc(Nc4ccc(C(F)(F)F)cc4)nn23)C1 (single isomer, unassigned; enantiomer 2) [Example 226, trans-3-(2-(4-(trifluoromethyl)(phenylamino)-[1,2,4]triazolo[1,5-a]pyridin-5-ylamino)cyclohexanol (enantiomer 2)]
Second: O[C@H]1CCC[C@H]1Nc1cccc2nc(Nc3ccc(C(F)(F)F)cc3)nn12 (stereo in doubt) [Example 376, (1S,2R)-2-(2-(4-(trifluoromethyl)phenylamino)-[1,2,4]triazolo[1,5-a]pyridin-5-ylamino)cyclopentanol]
The IC50 of the first is lower: 500 to 1000 nM for the first, 1000 to 10000 nM for the second. The first is the more potent here.

OC1CCCN(Cc2cccc3nc(Nc4ccc(C(F)(F)F)cc4)nn23)C1 (stereo in doubt) [Example 299, (R)-1-((2-(4-(trifluoromethyl)phenylamino)-[1,2,4]triazolo[1,5-a]pyridin-5-yl)methyl)piperidin-3-ol] and NC(=O)C1CCCN(Cc2cccc3nc(Nc4ccc(C(F)(F)F)cc4)nn23)C1 (stereo not shown) [Example 257, 1-((2-(4-(trifluoromethyl)phenylamino)-[1,2,4]triazolo[1,5-a]pyridin-5-yl)methyl)piperidine-3-carboxamide] fall in the same range of IC50: 1000 to 10000 nM for the first, 1000 to 10000 nM for the second.

CNC(=O)c1ccc(Nc2nc3cccc(N4CCCCC4)n3n2)cc1 [Example 247, N-methyl-4-(5-(piperidin-1-yl)-[1,2,4]triazolo[1,5-a]pyridin-2-ylamino)benzamide] and CNC(=O)c1ccc(Nc2nc3cccc(-c4cccnc4)n3n2)cc1 [Example 325, N-methyl-4-(5-(pyridin-3-yl)-[1,2,4]triazolo[1,5-a]pyridin-2-ylamino)benzamide] fall in the same range of IC50: 500 to 1000 nM for the first, 500 to 1000 nM for the second.

Compared with N#Cc1cccc(Nc2nc3cccc(N[C@H]4CC[C@@H](O)CC4)n3n2)c1 [Example 348, cis-3-(5-(4-hydroxycyclohexylamino)-[1,2,4]triazolo[1,5-a]pyridin-2-ylamino)benzonitrile], N#Cc1ccc(Nc2nc3cccc(N[C@H]4CC[C@@H](O)CC4)n3n2)cc1 [Example 363, 4-(5-(cis-4-hydroxycyclohexylamino)-[1,2,4]triazolo[1,5-a]pyridin-2-ylamino)benzonitrile] is lower in IC50: 250 to 500 nM for the first, 0.005 to 250 nM for the second.

Compared with C[C@]1(O)CC[C@H](Nc2cccc3nc(Nc4ccc(C(F)(F)F)cc4)nn23)CC1 [Example 383, trans-1-methyl-4-(2-(4-(trifluoromethyl)phenylamino)-[1,2,4]triazolo[1,5-a]pyridin-5-ylamino)cyclohexanol], FC(F)(F)c1ccc(Nc2nc3cccc(OC4CCNCC4)n3n2)cc1 [Example 352, 5-(piperidin-4-yloxy)-N-(4-(trifluoromethyl)phenyl)-[1,2,4]triazolo[1,5-a]pyridin-2-amine] is higher in IC50: 500 to 1000 nM for the first, 1000 to 10000 nM for the second. The first is the more potent here.

First: O[C@H]1CC[C@@H](Nc2cccc3nc(Nc4ccc(F)cc4)nn23)CC1 [Example 319, cis-4-(2-(4-fluorophenylamino)-[1,2,4]triazolo[1,5-a]pyridin-5-ylamino)cyclohexanol]
Second: O[C@H]1CC[C@@H](Nc2cccc3nc(Nc4ccncc4)nn23)CC1 [Example 389, cis-4-(2-(pyridin-4-ylamino)-[1,2,4]triazolo[1,5-a]pyridin-5-ylamino)cyclohexanol]
The IC50 of the first is lower: 0.005 to 250 nM for the first, 1000 to 10000 nM for the second. The first is the more potent here.

First: CC1(C)C(=O)Nc2cc(Nc3nc4cccc(N[C@H]5CC[C@@H](O)CC5)n4n3)ccc21 [Example 202, cis-6-(5-(4-hydroxycyclohexylamino)-[1,2,4]triazolo[1,5-a]pyridin-2-ylamino)-3,3-dimethylindolin-2-one]
Second: O[C@H]1CC[C@@H](Nc2cccc3nc(Nc4ccnc(OCCN5CCCC5)c4)nn23)CC1 [Example 293, cis-4-(2-(2-(2-(pyrrolidiun-1-yl)ethoxy)pyridin-4-ylamino)-[1,2,4]triazolo[1,5-a]pyridin-5-ylamino)cyclohexanol]
The IC50 of the first is lower: 0.005 to 250 nM for the first, 500 to 1000 nM for the second.

FC(F)(F)c1ccc(Nc2nc3cccc(OC[C@H]4CCCN4)n3n2)cc1 [Example 302, (R)-5-(pyrrolidin-2-ylmethoxy)-N-(4-(trifluoromethyl)phenyl)-[1,2,4]triazolo[1,5-a]pyridin-2-amine] and O=C1NCC[C@H]1NCc1cccc2nc(Nc3ccc(C(F)(F)F)cc3)nn12 [Example 205, (R)-3-((2-(4-(trifluoromethyl)phenylamino)-[1,2,4]triazolo[1,5-a]pyridin-5-yl)methylamino)pyrrolidin-2-one] fall in the same range of IC50: 1000 to 10000 nM for the first, 1000 to 10000 nM for the second.

same assay, conditions: read-out: Activity Level (Syk HTRF assay IC50)

CNC(=O)c1ccc(Nc2nc3cccc(-c4cccc(CN)c4)n3n2)cc1 [compound 33, 4-(5-(3-(aminomethyl)phenyl)-[1,2,4]triazolo[1,5-a]pyridin-2-ylamino)-N-methylbenzamide] and NC(=O)c1ccc(Nc2nc3cccc(-c4cccc(O)c4)n3n2)cc1 [compound 64, 4-(5-(3-hydroxyphenyl)-[1,2,4]triazolo[1,5-a]pyridin-2-ylamino)benzamide] fall in the same range of IC50: 0.005 to 250 nM for the first, 0.005 to 250 nM for the second.

Compared with CC1(C)C(=O)Nc2cc(Nc3nc4cccc(OC5CCOC5)n4n3)ccc21 (stereo in doubt) [Example 134, (R)-3,3-dimethyl-6-(5-(tetrahydrofuran-3-yloxy)-[1,2,4]triazolo[1,5-a]pyridin-2-ylamino)indolin-2-one], c1cc(CC2CCOCC2)n2nc(Nc3cnc4cn[nH]c4c3)nc2c1 [compound 106, N-(5-((tetrahydro-2H-pyran-4-yl)methyl)-[1,2,4]triazolo[1,5-a]pyridin-2-yl)-1H-pyrazolo[4,3-b]pyridin-6-amine] is higher in IC50: 0.005 to 250 nM for the first, 500 to 1000 nM for the second.

Cn1nnc2ccc(Nc3nc4cccc(-c5cccc(O)c5)n4n3)cc21 [compound 28, 3-(2-(1-methyl-1H-benzo[d][1,2,3]triazol-6-ylamino)-[1,2,4]triazolo[1,5-a]pyridin-5-yl)phenol] and OCc1nc2ccc(Nc3nc4cccc(-c5cccc(F)c5)n4n3)cc2[nH]1 [compound 3, (6-(5-(3-fluorophenyl)-[1,2,4]triazolo[1,5-a]pyridin-2-ylamino)-1H-benzo[d]imidazol-2-yl)methanol] fall in the same range of IC50: 0.005 to 250 nM for the first, 0.005 to 250 nM for the second.
